Source: BindingDB's records for doi:10.7270/Q2DB806H (University of Pittsburgh, 2007)

These compounds were tested against T1, Dual specificity protein phosphatase 6 (Rattus norvegicus, UniProt Q64346) (assay: MKP-3 phosphatase inhibitors, dose response, biochemical, probe assessment (AID 673)).
T1 sequence (Q64346 whole entry): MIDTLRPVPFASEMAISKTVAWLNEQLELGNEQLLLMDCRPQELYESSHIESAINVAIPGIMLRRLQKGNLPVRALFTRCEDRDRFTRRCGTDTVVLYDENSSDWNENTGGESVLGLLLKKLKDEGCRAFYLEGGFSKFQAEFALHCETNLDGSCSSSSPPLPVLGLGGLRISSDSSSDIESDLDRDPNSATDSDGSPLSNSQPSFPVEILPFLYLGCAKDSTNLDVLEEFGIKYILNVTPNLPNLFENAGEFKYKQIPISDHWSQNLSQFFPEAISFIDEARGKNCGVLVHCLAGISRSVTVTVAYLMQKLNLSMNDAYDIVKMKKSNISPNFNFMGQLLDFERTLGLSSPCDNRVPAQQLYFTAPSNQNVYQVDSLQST
O=C1C=Cc2ccccc2C1=O [1,2-dihydronaphthalene-1,2-dione] showed an IC50 greater than 50 µM.
With O=C1Cc2ccccc2C(=O)N1CCc1ccccc1 [2-(2-phenylethyl)-4H-isoquinoline-1,3-dione] the IC50 was 19.8 µM.
Compound COc1ccc2noc3c2c1C(=O)c1ccccc1-3 [MLS000106874] has an IC50 greater than 50 µM.
Cc1ccccc1Nc1cc2ccccc2c(O)n1 [3-[(2-methylphenyl)amino]-2H-isoquinolin-1-one] was tested, and the IC50 was 12.1 µM.
CC(=O)Nc1cc(OC(C)=O)c2nonc2c1OC(C)=O [Acetic acid 7-acetoxy-5-acetylamino-benzo[1,2,5]oxadiazol-4-yl ester] was tested, and the IC50 was greater than 50 µM.
In the case of O=C1C=Cc2ccccc2/C1=C/NC12CN3CCN(CN(C3)C1)C2 [MLS000071484], the IC50 is reported as greater than 50 µM.
Cc1c(N=c2c(=O)c3ccccc3c2=O)c(=O)n(-c2ccccc2)n1C [MLS000105950] showed an IC50 of 19.8 µM.
Compound [O-]/[N+](=C\c1ccncc1)c1ccccc1 has an IC50 greater than 50 µM.
In the case of CCOc1ccc2noc3c2c1C(=O)c1ccccc1-3 [MLS000106837], the IC50 is reported as greater than 50 µM.
For COc1cccc2c1NC(C(=O)O)C1CC=CC21 (stereo not drawn) [SMR000009698], the IC50 was greater than 50 µM.
CCOC(=O)C(C(=O)OCC)c1cc(Br)c2noc3c2c1C(=O)c1ccccc1-3 [MLS000038842] was tested, and the IC50 was greater than 50 µM.
Work on CCn1nc(-c2ccccc2)nc2c(=O)n(C)c(=O)nc1-2 [1-Ethyl-6-methyl-3-phenyl-1H-pyrimido[5,4-e][1,2,4]triazine-5,7-dione] yielded an IC50 of 0.615 µM.
For O=C(NC1(O)C(=O)c2ccccc2C1=O)c1ccccc1 [N-(2-hydroxy-1,3-dioxo-2-indenyl)benzamide], the IC50 was 48.7 µM.
With Oc1nc(Nc2ccccc2)cc2ccccc12 [MLS000043701] the IC50 was 12.6 µM.
N#Cc1c(N)sc(=S)c2c1CCN(Cc1ccccc1)C2 [3-Amino-7-benzyl-1-thioxo-5,6,7,8-tetrahydro-1H-thiopyrano[3,4-c]pyridine-4-carbonitrile] showed an IC50 of 2.74 µM.
[O-]/[N+](=C\c1ccc(OC(F)F)cc1)c1ccccc1 [1-[4-(difluoromethoxy)phenyl]-N-phenylmethanimine oxide] gave an IC50 greater than 50 µM.
Cn1ncnc2c(=O)n(C)c(=O)nc1-2 was tested, and the IC50 was 0.433 µM.
O=C(Nc1ccc2nc(-c3ccco3)c(-c3ccco3)nc2c1)N1CCCCCC1 showed an IC50 greater than 50 µM.
Work on Cc1ccc2c(c1C)NC(C(=O)O)C1CC=CC21 (stereo not drawn) yielded an IC50 greater than 50 µM.
Cc1ccc2c(c1)C1C=CCC1C(C(=O)O)N2 (stereo not drawn) [MLS-0067149.0001] showed an IC50 greater than 50 µM.
Compound Nc1cccc2cnccc12 [isoquinolin-5-amine] has an IC50 greater than 50 µM.
N#Cc1c(N2CCCC2)nc(N)c2c(N)nc(N3CCCC3)cc12 [SMR000061605] showed an IC50 of 3.71 µM.
Compound CCn1nc(-c2cccs2)nc2c(=O)n(C)c(=O)nc1-2 [1-ethyl-6-methyl-3-thiophen-2-yl-pyrimido[5,4-e][1,2,4]triazine-5,7-dione] has an IC50 of 0.629 µM.
For COc1cccc2c(C)c(C(=O)O)[nH]c12, the IC50 was greater than 50 µM.
COc1ccc(Br)cc1C=c1sc2nc(-c3ccco3)nn2c1=O [5-[(5-bromanyl-2-methoxy-phenyl)methylidene]-2-(furan-2-yl)-[1,3]thiazolo[3,2-b][1,2,4]triazol-6-one] showed an IC50 greater than 50 µM.
With O=C(OC1CCCCC1)c1ccc2c(c1)C1C=CCC1C(C(=O)O)N2 (stereo not drawn) [SMR000019385] the IC50 was greater than 50 µM.
In the case of O=C(O)C1Nc2c(O)cccc2C2C=CCC12 (stereo not drawn), the IC50 is reported as greater than 50 µM.
c1ccc(CSc2nnc(-c3ccco3)c(-c3ccco3)n2)cc1 [MLS-0029114.0001] was tested, and the IC50 was greater than 50 µM.
